Test results taken from patent US5455222A, “1-substituted-5-thiomethylthiocyanato-1H-tetrazoles, compositions containing them and their use as antimicrobial and marine antifouling agents” (The Dow Chemical Company, priority 1994, dated 1995).
In brackets after ≈: the same amount, converted by molar mass.

Assays:
[1] = tested on: Saccharomyces cerevisiae (Sc); experiment: Minimum inhibitory concentration (MIC), yeast/fungi in malt yeast agar; type: cell-based, Saccharomyces cerevisiae ATCC 4105; settings: 30° C., 48 hours for yeast
Procedure: (§1) The minimum inhibitory concentration (MIC) for the compounds listed in Table I is determined for 9 bacteria, using nutrient agar, and 7 yeast and fungi, using malt yeast agar. A one percent solution of the test compound is prepared in a mixture of acetone and water.
(§2) Malt yeast agar is prepared by adding 3 g yeast extract and 45 g malt agar per liter of deionized water. The specific agar is dispensed in 30 mL aliquots into 25×200 mm test tubes, capped and autoclaved for 15 minutes at 115° C.
(§3) The test tubes containing the agar are cooled in a water bath until the temperature of the agar is 48° C. Then, an appropriate amount of the one percent solution of the test compound is added (except in the controls where no compound is added) to the respective test tubes so that the final concentrations are 500, 250, 100, 50, 25, 10, 5, 2.5, 1.0 and zero parts per million of the test compound in the agar, thus having a known concentration of test compound dispersed therein. The contents of the test tubes are then transferred to respective petri plates. After drying for 24 hours, the petri plates containing nutrient agar are inoculated with bacteria and those containing malt yeast agar are inoculated with yeast and fungi.
(§4) The inoculation with the yeast and fungi is accomplished as follows. Cultures of yeast and fungi are incubated for seven days on malt yeast agar at 30° C. These cultures are used to prepare suspensions by the following procedure. A suspension of each organism is prepared by adding 10 mL of sterile saline and 10 microliters of octylphenoxy polyethoxy ethanol to the agar slant of yeast or fungi. The sterile saline/octylphenoxy polyethoxy ethanol solution is then agitated with a sterile swab to suspend the microorganism grown on the slant. Each resulting suspension is diluted into sterile saline (1 part suspension to 9 parts sterile saline). Aliquots of these dilutions are placed in individual wells of Steer's Replicator and petri plates inoculated as previously described. The petri plates are incubated at 30° C. and read after 48 hours for yeast and 72 hours for fungi.
(§5) Table II lists the bacteria, yeast and fungi used in the MIC test described above along with their respective American Type Culture Collection (ATCC) identification numbers.
(§6) In Tables III and IV, the MIC values of the compounds described in Table I as compared to the MIC of a standard commercial preservative (with 1-(3-chloroallyl)-3,5,7-triaza-1-azoniaadamantane chloride as the active agent and referred to in Tables III and IV as "STANDARD I") are set forth for the bacteria organisms and yeast/fungi organisms which are listed in Table II.

Escherichia coli (Ec) = experiment: Minimum inhibitory concentration (MIC), bacteria in nutrient agar; type: cell-based, Escherichia coli ATCC 11229; settings: 48 hours
Procedure: as §1
(§7) Nutrient agar is prepared at pH 6.8, representing a neutral medium, and at pH 8.2, representing an alkaline medium. The nutrient agars are prepared by adding 23 g of nutrient agar to one liter of deionized water. In addition, the alkaline medium is prepared by adjusting a 0.04M solution of N-[tris-(hydroxymethyl)methyl]glycine buffered deionized water with concentrated sodium hydroxide to a pH of 8.5.
as §3
(§8) The inoculation with bacteria is accomplished by using the following procedure. Twenty-four hour-cultures of each of the bacteria are prepared by incubating the respective bacteria in tubes containing nutrient broth for 24 hours at 30° C. in a shaker. Dilutions of each of the 24 hour-cultures are made so that nine separate suspensions (one for each of the nine test bacteria) are made, each containing 10^8 colony forming units (CFU) per mL of suspension of a particular bacteria. Aliquots of 0.3 mL of each of the bacterial suspensions are used to fill the individual wells of Steer's Replicator. For each microbial suspension, 0.3 mL was used to fill three wells (i.e., three wells of 0.3 mL each) so that for the nine different bacteria, 27 wells are filled. The Steer's Replicator is then used to inoculate both the neutral and alkaline pH nutrient agar petri plates.
(§9) The inoculated petri plates are incubated at 30° C. for 48 hours and then read to determine if the test compound which is incorporated into the agar prevented growth of the respective bacteria.
as §5, §6

[2] = tested on: Pseudomonas aeruginosa (PRD-10); experiment: as above; type: cell-based, Pseudomonas aeruginosa ATCC 15442; settings: 48 hours
Procedure: as §1, §7, §3, §8, §9, §5, §6

[3] = tested on: Pseudomonas aeruginosa (Pa); experiment: as above; type: cell-based, Pseudomonas aeruginosa ATCC 10145; settings: 48 hours
Procedure: as §1, §7, §3, §8, §9, §5, §6

Trichoderma viride (Tv) = experiment: Minimum inhibitory concentration (MIC), yeast/fungi in malt yeast agar; type: cell-based, Trichoderma viride ATCC 8678; settings: 30° C., 72 hours for fungi
Procedure: as §1, §2, §3, §4, §5, §6

[4] = tested on: Aureobasidium pullulan (Ap); experiment: as above; type: cell-based, Aureobasidium pullulan ATCC 16622; settings: 30° C., read after 48 hours for yeast and 72 hours for fungi
Procedure: as §1, §2, §3, §4, §5, §6

[5] = tested on: Salmonella choleraesuis (Sc); experiment: Minimum inhibitory concentration (MIC), bacteria in nutrient agar; type: cell-based, Salmonella choleraesuis ATCC 10708; settings: Salmonella enterica, 48 hours
Procedure: as §1, §7, §3, §8, §9, §5, §6

[6] = tested on: Staphylococcus aureus (Sa); experiment: as above; type: cell-based, Staphylococcus aureus ATCC 6538; settings: 48 hours
Procedure: as §1, §7, §3, §8, §9, §5, §6

| SMILES | MIC [1] [µg/mL] | MIC (Escherichia coli (Ec); nutrient agar pH 6.8, 30° C.) [µg/mL] | MIC (Escherichia coli (Ec); nutrient agar pH 8.2, 30° C.) [µg/mL] | MIC ([2]; nutrient agar pH 6.8, 30° C.) [µg/mL] | MIC ([2]; nutrient agar pH 8.2, 30° C.) [µg/mL] | MIC ([3]; nutrient agar pH 8.2, 30° C.) [µg/mL] | MIC (Trichoderma viride (Tv)) [µg/mL] | MIC [4] [µg/mL] | MIC ([5]; nutrient agar pH 6.8, 30° C.) [µg/mL] | MIC ([5]; nutrient agar pH 8.2, 30° C.) [µg/mL] | MIC ([6]; nutrient agar pH 6.8, 30° C.) [µg/mL] | MIC ([6]; nutrient agar pH 8.2, 30° C.) [µg/mL] | MIC ([3]; nutrient agar pH 6.8, 30° C.) [µg/mL] |
| --- | --- | --- | --- | --- | --- | --- | --- | --- | --- | --- | --- | --- | --- |
| N#CSCSc1nnnn1-c1cccc(Cl)c1 [II, 1-(3-Chlorophenyl)-5-thiomethylthiocyanato-1H-tetrazole] | < 10 | 500 (≈ 1760 µM) | 500 (≈ 1760 µM) | 500 (≈ 1760 µM) | 250 (≈ 881 µM) | 500 (≈ 1760 µM) | 25 (≈ 88.1 µM) | < 10 | 500 (≈ 1760 µM) | 500 (≈ 1760 µM) | 250 (≈ 881 µM) | 100 (≈ 352 µM) | – |
| N#CSCSc1nnnn1-c1ccc(Cl)cc1 [III, 1-(4-Chlorophenyl)-5-thiomethylthiocyanato-1H-tetrazole] | 2.5 (≈ 8.81 µM) | 25 (≈ 88.1 µM) | 250 (≈ 881 µM) | 25 (≈ 88.1 µM) | 50 (≈ 176 µM) | 25 (≈ 88.1 µM) | 5 (≈ 17.6 µM) | 2.5 (≈ 8.81 µM) | 25 (≈ 88.1 µM) | 100 (≈ 352 µM) | 25 (≈ 88.1 µM) | 50 (≈ 176 µM) | – |
| Cc1cccc(-n2nnnc2SCSC#N)c1 [VI, 1-(3-Methylphenyl)-5-thiomethylthiocyanato-1H-tetrazole] | < 1 | 500 (≈ 1900 µM) | 500 (≈ 1900 µM) | 500 (≈ 1900 µM) | 500 (≈ 1900 µM) | 250 (≈ 949 µM) | 25 (≈ 94.9 µM) | < 1 | 500 (≈ 1900 µM) | 500 (≈ 1900 µM) | 25 (≈ 94.9 µM) | 50 (≈ 190 µM) | – |
| N#CSCSc1nnnn1C1CCCCC1 [X, 1-(Cyclohexyl)-5-thiomethylthiocyanato-1H-tetrazole] | 5 (≈ 19.6 µM) | 250 (≈ 979 µM) | 500 (≈ 1960 µM) | 500 (≈ 1960 µM) | 500 (≈ 1960 µM) | 250 (≈ 979 µM) | 50 (≈ 196 µM) | < 1 | 250 (≈ 979 µM) | 500 (≈ 1960 µM) | 25 (≈ 97.9 µM) | 50 (≈ 196 µM) | 250 (≈ 979 µM) |
